This note sets out measurements from patent publication US10723695B2, “Microbiocidal phenylamidine derivatives” (SYNGENTA PARTICIPATIONS AG, priority 2015, dated 2020).

Series [1] relates to Blumeria graminis f. sp. tritici (Erysiphe graminis f. sp. tritici). Briefly: Blumeria graminis f. sp. tritici / wheat / leaf disc preventative (powdery mildew on wheat). The series is classed as in vivo. To be noted: foliar, wheat leaf segments cv. Kanzler, compared to untreated control leaf disks, read-out: disease control. The text has this: Blumeria graminis f. sp. tritici (Erysiphe graminis f. sp. tritici)/Wheat/Leaf Disc Preventative (Powdery Mildew on Wheat) Wheat leaf segments cv. Kanzler were placed on agar in a multiwell plate (24-well format) and sprayed with the formulated test compound diluted in water. The leaf disks were inoculated by shaking powdery mildew infected plants above the test plates 1 day after application.

Series [2] has as its system Puccinia recondita f. sp. tritici. Nature of the series: Puccinia recondita f. sp. tritici / wheat / leaf disc curative (brown rust). The series is classed as in vivo. To be noted: foliar, 24 h, wheat leaf segments cv. Kanzler, curative (applied 1 day after inoculation), compared to untreated control leaf disks, read-out: disease control. The procedure:
Puccinia recondita f. sp. tritici/Wheat/Leaf Disc Curative (Brown Rust) Wheat leaf segments cv. Kanzler are placed on agar in multiwell plates (24-well format). The leaf segments are inoculated with a spore suspension of the fungus. Plates were stored in darkness at 19° C. and 75% rh. The formulated test compound diluted in water was applied 1 day after inoculation.

Series [3] deals with Phakopsora pachyrhizi. Nature of the series: Phakopsora pachyrhizi / soybean / leaf disk preventative (soybean rust). To be noted: foliar, soybean leaf disks, compared to untreated control leaf disks, read-out: disease control. The class given is in vivo. The procedure:
Phakopsora pachyrhizi/Soybean/Leaf Disk Preventative (Soybean Rust) Four-week old soybean plants are sprayed in a spray chamber with the formulated test compound diluted in water. Leaf disks are cut from treated plants and placed on agar into 24-well plates one day after application. Leaf disks are inoculated by spraying them with a spore suspension on their lower leaf surface. After an incubation period in a climate cabinet of 24-36 hours in darkness at 20° C. and 75% rh, the leaf disks are then kept at 20° C. with 12 h light/day and 75% rh. The percentage leaf disk area covered by disease is assessed when an appropriate level of disease appears on untreated check plants (12-14 days after application).

The subject of series [4] is Puccinia recondita f. sp. tritici. Briefly: Puccinia recondita f. sp. tritici / wheat / leaf disc preventative (brown rust). The class given is in vivo. To be noted: foliar, wheat leaf segments cv. Kanzler, compared to untreated control leaf disks, read-out: disease control. The method, then: Puccinia recondita f. sp. tritici/Wheat/Leaf Disc Preventative (Brown Rust) Wheat leaf segments cv. Kanzler were placed on agar in multiwell plates (24-well format) and sprayed with the formulated test compound diluted in water. The leaf disks were inoculated with a spore suspension of the fungus 1 day after application. The inoculated leaf segments were incubated at 19° C. and 75% rh under a light regime of 12 h light/12 h darkness in a climate cabinet and the activity of a compound was assessed as percent disease control compared to untreated when an appropriate level of disease damage appears in untreated check leaf segments (7-9 days after application).

Regarding `CCCCC(O)(c1cc(C)c(/N=C/N2CCCC2)cc1OC)C(F)(F)F` (stereo not shown) [Compound E1.134], the melting point (usually the temperature of the solid-liquid transition) was in the range of 103 to 105 °C.

The molecule `CCN(C)/C=N/c1cc(OC)c(C(O)(c2ccc(F)c(F)c2)C(F)(F)F)cc1C` (stereo not shown) [Compound E1.128] had a melting point of 108 to 110 °C.

Regarding `COc1cc(/N=C/N(C)C(C)C)c(C)cc1C(O)(c1ccccc1F)C(F)(F)F` (stereo not shown) [Compound E1.150], the melting point was in the range of 86 to 88 °C.

`COc1cc(/N=C/N(C)C(C)C)c(C)cc1C(O)(c1cccc(F)c1C)C(F)(F)F` (stereo not shown) [Compound E1.131] came in with a melting point of 127 to 129 °C.

Regarding `COc1cc(/N=C/N(C)C)c(C)cc1C(O)(c1ccccc1)C(F)(F)F` (stereo not shown) [Compound E1.137], the melting point was in the range of 133 to 135 °C.

Take `COc1cc(/N=C/N(C)C(C)C)c(C)cc1C(O)(c1cc(F)cc(F)c1)C(F)(F)F` (stereo not shown) [Compound E1.149]: the melting point was 110 to 112 °C.

As to `CCN(/C=N/c1cc(OC)c(C(O)(C(C)C)C(F)(F)F)cc1C)CC` (stereo not shown) [Compound E1.133], the melting point fell in the range of 60 to 62 °C.

Take `CCN(C)/C=N/c1cc(OC)c(C(O)(c2cccc(F)c2F)C(F)(F)F)cc1C` (stereo not shown) [Compound E1.143]: the melting point was 130 to 132 °C.

Regarding `COc1cc(/N=C/N(C)C(C)C)c(C)cc1C(O)(c1cc(F)ccc1F)C(F)(F)F` (stereo not shown) [Compound E1.135], the melting point was 112 to 115 °C.

Molecule `CCN(C)/C=N/c1cc(OC)c(C(O)(c2c(F)cccc2F)C(F)(F)F)cc1C` (stereo not shown) [Compound E1.147] gave a melting point of 128 to 130 °C.

As to `CCN(C)/C=N/c1cc(OC)c(C(O)(c2cccnc2F)C(F)(F)F)cc1C` (stereo not shown) [Compound E1.157], the melting point lay in the range of 113 to 115 °C.

As to `CCN(C)/C=N/c1cc(OC)c(C(O)(CC(C)(C)C)C(F)(F)F)cc1C` (stereo not shown) [Compound E1.066], the pest or weed control at 200 ppm in series [1], in series [2], in series [3] and in series [4] was at least 80% throughout.

Take `CCN(C)/C=N/c1cc(OC)c(C(O)(c2cccc(Cl)n2)C(F)(F)F)cc1C` (stereo not shown) [Compound E1.106]: the pest or weed control at 200 ppm in series [1], in series [2], in series [3] and in series [4] was at least 80% in each case.

In the case of `CCN(C)/C=N/c1cc(OC)c(C(O)(C2CCC2)C(F)(F)F)cc1C` (stereo not shown) [Compound E1.069], the pest or weed control at 200 ppm in series [1], in series [2], in series [3] and in series [4] was at least 80% each time.

Turning to `C=CCC(O)(c1cc(C)c(/N=C/N(C)CC)cc1OC)C(F)(F)Cl` (stereo not shown) [Compound E1.121], the pest or weed control at 200 ppm in series [1], in series [2], in series [3] and in series [4] was at least 80% in each case.

For the molecule `CCN(C)/C=N/c1cc(OC)c(C(O)(C=C(C)C)C(F)(F)F)cc1C` (stereo not shown) [Compound E1.076], the pest or weed control at 200 ppm in series [1], in series [2], in series [3] and in series [4] was at least 80% throughout.

`CCN(C)/C=N/c1cc(OC)c(C(O)(c2cc3ccccc3s2)C(F)(F)F)cc1C` (stereo not shown) [Compound E1.103]: the pest or weed control at 200 ppm in series [1], in series [2], in series [3] and in series [4] was at least 80% each time.

For the molecule `CCN(C)/C=N/c1cc(OC)c(C(O)(Cc2ccccc2)C(F)(F)F)cc1C` (stereo not shown) [Compound E1.086], the pest or weed control at 200 ppm in series [1], in series [2], in series [3] and in series [4] was at least 80% in each case.

As for `CCCCC(O)(c1cc(C)c(/N=C/N(C)C(C)C)cc1OC)C(F)(F)F` (stereo not shown) [Compound E1.053], the pest or weed control at 200 ppm in series [1], in series [2], in series [3] and in series [4] was at least 80% each time.

As to `CCN(C)/C=N/c1cc(OC)c(C(O)(c2ccc(C)s2)C(F)(F)F)cc1C` (stereo not shown) [Compound E1.104], the pest or weed control at 200 ppm in series [1], in series [2], in series [3] and in series [4] was at least 80% throughout.

On to `CCCCC(O)(c1cc(Cl)c(/N=C/N(C)CC)cc1OC)C(F)(F)F` (stereo not shown) [Compound E1.117], for which the pest or weed control at 200 ppm in series [1], in series [2], in series [3] and in series [4] was at least 80% in each case.

With `CCN(C)/C=N/c1cc(OC)c(C(O)(c2cccnc2OC)C(F)(F)F)cc1C` (stereo not shown) [Compound E1.112], the pest or weed control at 200 ppm in series [1], in series [2], in series [3] and in series [4] was at least 80% in each case.

For `C#CCC(O)(c1cc(C)c(/N=C/N(C)CC)cc1OC)C(F)(F)F` (stereo not shown) [Compound E1.083], the pest or weed control at 200 ppm in series [1], in series [2], in series [3] and in series [4] was at least 80% in each case.

`CCN(C)/C=N/c1cc(OC)c(C(O)(c2ccccc2OC)C(F)(F)F)cc1C` (stereo not shown) [Compound E1.030]: the pest or weed control at 200 ppm in series [1], in series [2], in series [3] and in series [4] was at least 80% each time.

Consider `CCN(C)/C=N/c1cc(OC)c(C(O)(Cc2ccnc(F)c2)C(F)(F)F)cc1C` (stereo not shown) [Compound E1.101], for which the pest or weed control at 200 ppm in series [1], in series [2], in series [3] and in series [4] was at least 80% throughout.

On to `C=CC(O)(c1cc(C)c(/N=C/N(C)CC)cc1OC)C(F)(F)F` (stereo not shown) [Compound E1.077], for which the pest or weed control at 200 ppm in series [1], in series [2], in series [3] and in series [4] was at least 80% throughout.

Consider `CCN(C)/C=N/c1cc(OC)c(C(O)(Cc2ccc(C)cc2)C(F)(F)F)cc1C` (stereo not shown) [Compound E1.087], for which the pest or weed control at 200 ppm in series [1], in series [2], in series [3] and in series [4] was at least 80% in each case.

Take `CCN(C)/C=N/c1cc(OC)c(C(O)(c2ccccc2)C(F)F)cc1C` (stereo not shown) [Compound E1.005]: the pest or weed control at 200 ppm in series [1], in series [2], in series [3] and in series [4] was at least 80% throughout.

Take `CCN(C)/C=N/c1cc(OC)c(C(O)(c2cccs2)C(F)(F)F)cc1C` (stereo not shown) [Compound E1.105]: the pest or weed control at 200 ppm in series [1], in series [2], in series [3] and in series [4] was at least 80% in each case.

For `CCCCC(O)(c1cc(C)c(/N=C/N(C)C2CC2)cc1OC)C(F)(F)F` (stereo not shown) [Compound E1.049], the pest or weed control at 200 ppm in series [1], in series [2], in series [3] and in series [4] was at least 80% in each case.

Take `CCN(C)/C=N/c1cc(OC)c(C(O)c2ccccc2)cc1C` (stereo not shown) [Compound E1.123]: the pest or weed control at 200 ppm in series [1], in series [2], in series [3] and in series [4] was at least 80% each time.

Turning to `CCN(C)/C=N/c1cc(OC)c(C(O)(C2CCC(C)CC2)C(F)(F)F)cc1C` (stereo not shown) [Compound E1.062], the pest or weed control at 200 ppm in series [1], in series [2], in series [3] and in series [4] was at least 80% each time.

Turning to `CCN(C)/C=N/c1cc(OC)c(C(O)(Cn2ncc3ccccc32)C(F)(F)F)cc1C` (stereo not shown) [Compound E1.093], the pest or weed control at 200 ppm in series [1], in series [2], in series [3] and in series [4] was at least 80% in each case.

With `CCN(C)/C=N/c1cc(OC)c(C(O)(Cn2nc(C)c(C)c2C)C(F)(F)F)cc1C` (stereo not shown) [Compound E1.095], the pest or weed control at 200 ppm in series [1], in series [2], in series [3] and in series [4] was at least 80% each time.
